Experimental data from patent publication EP4810038A1, “METHOD FOR TREATING ALK-POSITIVE OR ROS1-POSITIVE NON-SMALL CELL LUNG CANCER” (Shenzhen TargetRx Co., Ltd., priority 2023, dated 2025).
“Also recorded” adds a separate entry of the source.

Assay: Phase I clinical trial: safety and tolerability (TRAE, CNS-related AE, DLT, MTD, RP2D)
Format: in vivo
Description: An adverse event will be described using MedDRA (Medical Dictionary for Regulatory Activities). Analysis of an adverse event will be based on a treatment emergent adverse event (TEAE). TEAE is defined as an adverse event that occur or worsen after a treatment/medication.
Subjects in all the dose groups received a single dose on day 1 (D1), and the blood samples were collected for pharmacokinetic (PK) assay and tolerability observation. […] The administration frequency for the subjects in the subsequent dose groups after entering the multiple-dose period was determined based on the obtained PK and tolerability data. In this trial, the administration frequency for all the subjects could be adjusted throughout the trial based on the continuously acquired safety and PK data. The four lower dose groups (5 mg, 10 mg, 20 mg and 40 mg) used an accelerated titration design, with one subject enrolled in each dose group. […] The 60 mg dose group and the subsequent dose groups followed a "3+3" dose escalation method, and the MTD was determined. […] During the dose escalation, if a dose group was confirmed to have a preliminary antitumor effect and manageable safety (e.g., no DLT occurred in 3 subjects or only 1 out of 6 subjects experienced DLT), the dose level could be expanded after a discussion and confirmation by the researcher and the sponsor.

[1] = 60mg dose group n=168, any level

In the case of [2H]C([2H])([2H])n1nc2c(c1C#N)-c1cnc(N)c(c1)O[C@H](C)c1cc(F)ccc1C(=O)N(C)C2 [compound A, (10R)-7-amino-12-fluoro-2-(methyl-d3)-10,16-dimethyl-15-oxo-10,15,16,17-tetrahydro-2H-8,4-(metheno)pyrazolo[4,3-h][2,5,11]benzoxadiazacyclotetradecine-3-carbonitrile], the “Any TRAE” value [1] is reported as 159 (94.6) number of cases (%), the “TRAE Anemia” value [1] is reported as 26 (15.5) number of cases (%) and the “TRAE Diarrhea” value [1] is reported as 8 (8.2) number of cases (%). The “TRAE Edema” value [1] was 45(22.7) number of cases (%), the “TRAE Elevated alanine aminotransferase” value [1] was 14 (8.3) number of cases (%) and the “TRAE Elevated creatinine” value [1] was 11 (6.5) number of cases (%). For the same compound, the “TRAE Hypercholesterolemia” value [1] was 131 (78.0) number of cases (%), the “TRAE Hypertriglyceridemia” value [1] was 124 (73.8) number of cases (%) and the “TRAE Hyperuricemia” value [1] was 26 (15.5) number of cases (%). For the same compound, the “TRAE Hypoproteinemia” value [1] was 10 (6.0) number of cases (%), the “TRAE Increased AST” value [1] was 18 (10.7) number of cases (%) and the “TRAE Increased LDL cholesterol” value [1] was 45 (26.8) number of cases (%). For the same compound, the “TRAE Increased creatine phosphokinase” value [1] was 9 (5.4) number of cases (%), the “TRAE Increased glutamine transferase” value [1] was 9 (5.4) number of cases (%) and the “TRAE Increased lipase” value [1] was 12 (7.1) number of cases (%). For the same compound, the “TRAE Peripheral neuropathy” value [1] was 34(20.2) number of cases (%), the “TRAE Positive for occult blood in urine” value [1] was 13 (7.7) number of cases (%) and the “TRAE Proteinuria” value [1] was 7 (7.2) number of cases (%). For the same compound, the “TRAE Weight gain” value [1] was 77 (45.8) number of cases (%), the “Any TRAE” value (60mg dose group n=168, ≥3) was 61 (36.3%) number of cases (%) and the “TRAE Anemia” value (60mg dose group n=168, ≥3) was 4 (2.4) number of cases (%). For the same compound, the “TRAE Diarrhea” value (60mg dose group n=168, ≥3) was 0 number of cases (%), the “TRAE Edema” value (60mg dose group n=168, ≥3) was 2 (1.2) number of cases (%) and the “TRAE Elevated alanine aminotransferase” value (60mg dose group n=168, ≥3) was 0 number of cases (%). The “TRAE Elevated creatinine” value (60mg dose group n=168, ≥3) was 0 number of cases (%), the “TRAE Hypercholesterolemia” value (60mg dose group n=168, ≥3) was 17 (10.1) number of cases (%) and the “TRAE Hypertriglyceridemia” value (60mg dose group n=168, ≥3) was 31 (18.5) number of cases (%). The “TRAE Hyperuricemia” value (60mg dose group n=168, ≥3) was 4 (2.4) number of cases (%), the “TRAE Hypoproteinemia” value (60mg dose group n=168, ≥3) was 0 number of cases (%) and the “TRAE Increased AST” value (60mg dose group n=168, ≥3) was 0 number of cases (%). The “TRAE Increased LDL cholesterol” value (60mg dose group n=168, ≥3) was 0 number of cases (%), the “TRAE Increased creatine phosphokinase” value (60mg dose group n=168, ≥3) was 0 number of cases (%) and the “TRAE Increased glutamine transferase” value (60mg dose group n=168, ≥3) was 2 (1.2) number of cases (%). The “TRAE Increased lipase” value (60mg dose group n=168, ≥3) was 1 (0.6) number of cases (%), the “TRAE Peripheral neuropathy” value (60mg dose group n=168, ≥3) was 1 (0.6) number of cases (%) and the “TRAE Positive for occult blood in urine” value (60mg dose group n=168, ≥3) was 0 number of cases (%). For the same compound, the “TRAE Proteinuria” value (60mg dose group n=168, ≥3) was 0 number of cases (%), the “TRAE Weight gain” value (60mg dose group n=168, ≥3) was 11 (6.5) number of cases (%) and the “dose interruption or dose reduction due to treatment-related CNS AEs” value (198 patients) was “no dose interruption or dose reduction was observed”. For the same compound, the “most common TRAEs” value (198 patients) was “hypercholesterolemia, hypertriglyceridemia, or weight gain”, the “patients with grade ≥ 3 treatment-related CNS AEs” value (198 patients) was 1.0% and the “Any CNS-related AE” value (Any level) was 18 (9.1) number of cases (%). The “CNS-related AE: Anger” value (Any level) was 1 (0.5) number of cases (%), the “CNS-related AE: Cognitive impairment” value (Any level) was 1 (0.5) number of cases (%) and the “CNS-related AE: Depression” value (Any level) was 3 (1.5) number of cases (%). For the same compound, the “CNS-related AE: Disorganized speech” value (Any level) was 1 (0.5) number of cases (%), the “CNS-related AE: Impact on cognition” value (Any level) was 5 (2.5) number of cases (%) and the “CNS-related AE: Impact on emotion” value (Any level) was 4 (2.0) number of cases (%). The “CNS-related AE: Impact on language” value (Any level) was 2 (1.0) number of cases (%), the “CNS-related AE: Impact on sleep” value (Any level) was 7 (4.5) number of cases (%) and the “CNS-related AE: Insomnia” value (Any level) was 1 (0.5) number of cases (%). The “CNS-related AE: Memory impairment” value (Any level) was 3 (1.5) number of cases (%), the “CNS-related AE: Mental disorder” value (Any level) was 1 (0.5) number of cases (%) and the “CNS-related AE: Poor sleep quality” value (Any level) was 6 (4.0) number of cases (%). The “CNS-related AE: Speech disorder” value (Any level) was 1 (0.5) number of cases (%), the “Any TRAE” value (In total n=198, any level) was 184 (92.9%) number of cases (%) and the “TRAE Anemia” value (In total n=198, any level) was 27 (13.6) number of cases (%). For the same compound, the “TRAE Diarrhea” value (In total n=198, any level) was 13 (6.6) number of cases (%), the “TRAE Edema” value (In total n=198, any level) was 51(25.8) number of cases (%) and the “TRAE Elevated alanine aminotransferase” value (In total n=198, any level) was 18 (9.1) number of cases (%). For the same compound, the “TRAE Elevated creatinine” value (In total n=198, any level) was 12 (6.1) number of cases (%), the “TRAE Hypercholesterolemia” value (In total n=198, any level) was 154 (77.8) number of cases (%) and the “TRAE Hypertriglyceridemia” value (In total n=198, any level) was 147 (74.2) number of cases (%). For the same compound, the “TRAE Hyperuricemia” value (In total n=198, any level) was 27 (13.6) number of cases (%), the “TRAE Hypoproteinemia” value (In total n=198, any level) was 10 (5.1) number of cases (%) and the “TRAE Increased AST” value (In total n=198, any level) was 20 (10.1) number of cases (%). The “TRAE Increased LDL cholesterol” value (In total n=198, any level) was 51 (25.8) number of cases (%), the “TRAE Increased creatine phosphokinase” value (In total n=198, any level) was 11 (5.6) number of cases (%) and the “TRAE Increased glutamine transferase” value (In total n=198, any level) was 10 (5.1) number of cases (%). For the same compound, the “TRAE Increased lipase” value (In total n=198, any level) was 19 (9.6) number of cases (%), the “TRAE Peripheral neuropathy” value (In total n=198, any level) was 38(19.2) number of cases (%) and the “TRAE Positive for occult blood in urine” value (In total n=198, any level) was 13 (6.6) number of cases (%). For the same compound, the “TRAE Proteinuria” value (In total n=198, any level) was 10 (5.1) number of cases (%), the “TRAE Weight gain” value (In total n=198, any level) was 91 (46.0) number of cases (%) and the “Any TRAE” value (In total n=198, ≥3) was 73 (36.9%) number of cases (%). The “TRAE Anemia” value (In total n=198, ≥3) was 4 (2.0) number of cases (%), the “TRAE Diarrhea” value (In total n=198, ≥3) was 0 number of cases (%) and the “TRAE Edema” value (In total n=198, ≥3) was 3(1.5) number of cases (%). The “TRAE Elevated alanine aminotransferase” value (In total n=198, ≥3) was 0 number of cases (%), the “TRAE Elevated creatinine” value (In total n=198, ≥3) was 0 number of cases (%) and the “TRAE Hypercholesterolemia” value (In total n=198, ≥3) was 18 (9.1) number of cases (%). The “TRAE Hypertriglyceridemia” value (In total n=198, ≥3) was 38 (19.2) number of cases (%), the “TRAE Hyperuricemia” value (In total n=198, ≥3) was 4 (2.0) number of cases (%) and the “TRAE Hypoproteinemia” value (In total n=198, ≥3) was 0 number of cases (%). The “TRAE Increased AST” value (In total n=198, ≥3) was 0 number of cases (%), the “TRAE Increased LDL cholesterol” value (In total n=198, ≥3) was 0 number of cases (%) and the “TRAE Increased creatine phosphokinase” value (In total n=198, ≥3) was 0 number of cases (%). The “TRAE Increased glutamine transferase” value (In total n=198, ≥3) was 2 (1.0) number of cases (%), the “TRAE Increased lipase” value (In total n=198, ≥3) was 1 (0.5) number of cases (%) and the “TRAE Peripheral neuropathy” value (In total n=198, ≥3) was 1(0.5) number of cases (%). The “TRAE Positive for occult blood in urine” value (In total n=198, ≥3) was 0 number of cases (%), the “TRAE Proteinuria” value (In total n=198, ≥3) was 0 number of cases (%) and the “TRAE Weight gain” value (In total n=198, ≥3) was 14 (7.1) number of cases (%). The “incidence of other AE, 60 mg dose group versus 80 mg dose group” value (dose escalation and dose expansion phases) was “significantly lower”, the “dose-limiting toxicity (DLT)” value (dose escalation phase, 5 to 125 mg) was “No DLT was observed; also recorded: No dose-limiting toxicity was observed” and the MTD (dose escalation up to 125 mg) was “not reached”. The “Any CNS-related AE” value (≥3) was 2 (1.0) number of cases (%), the “CNS-related AE: Anger” value (≥3) was 0 number of cases (%) and the “CNS-related AE: Cognitive impairment” value (≥3) was 0 number of cases (%). The “CNS-related AE: Depression” value (≥3) was 0 number of cases (%), the “CNS-related AE: Disorganized speech” value (≥3) was 0 number of cases (%) and the “CNS-related AE: Impact on cognition” value (≥3) was 1 (0.5) number of cases (%). For the same compound, the “CNS-related AE: Impact on language” value (≥3) was 1 (0.5) number of cases (%), the “CNS-related AE: Insomnia” value (≥3) was 0 number of cases (%) and the “CNS-related AE: Memory impairment” value (≥3) was 0 number of cases (%). For the same compound, the “CNS-related AE: Mental disorder” value (≥3) was 1 (0.5) number of cases (%), the “CNS-related AE: Poor sleep quality” value (≥3) was 0 number of cases (%) and the “CNS-related AE: Speech disorder” value (≥3) was 1 (0.5) number of cases (%).
